Test results from patent EP4562004B1, “NOVEL 7-SUBSTITUTED INDOLE SULFONAMIDE DERIVATIVES” (F. Hoffmann-La Roche AG, priority 2022, dated 2024).

molecular target: human GPR17 short isoform (Homo sapiens, UniProt Q13304); test: GPR17 cAMP assay (antagonist mode, TR-FRET cAMP detection); assay type: cell-based; settings: CHO-K1 cells stably expressing human GPR17 short isoform; with EC80 concentration of agonist MDL29,951, IBMX 0.5mM, forskolin 15µM; normalized to reference antagonist; read-out: hGPR17 cAMP IC50
Sequence (Q13304 29-367): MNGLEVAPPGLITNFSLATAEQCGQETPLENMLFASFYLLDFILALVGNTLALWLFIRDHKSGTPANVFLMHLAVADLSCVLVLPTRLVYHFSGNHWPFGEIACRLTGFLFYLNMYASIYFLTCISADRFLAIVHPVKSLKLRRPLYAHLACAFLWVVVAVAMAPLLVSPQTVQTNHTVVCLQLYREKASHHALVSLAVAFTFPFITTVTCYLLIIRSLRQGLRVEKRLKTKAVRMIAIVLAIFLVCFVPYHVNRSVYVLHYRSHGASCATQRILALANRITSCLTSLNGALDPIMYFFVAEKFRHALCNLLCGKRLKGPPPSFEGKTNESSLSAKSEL
Method: CHO-K1 cells stably expressing vector containing untagged human GPR17 short isoform (Roche) were cultured at 37°C / 5% CO2 in DMEM (Dulbecco's Modified Eagle Medium):F-12 (1:1) supplemented with 10% foetal bovine serum and 400 µg/ml Geneticin.
Changes in intracellular cyclic adenosine monophosphate (cAMP) levels were quantified using the Nano-TRF Detection Assay kit (Roche Diagnostics, Cat. No. 05214386001). This assay allows for direct cAMP quantification in a homogeneous solution. cAMP is detected based on time-resolved fluorescence energy transfer (TR-FRET) and competitive binding of ruthenylated cAMP and endogenous cAMP to an anti-cAMP monoclonal antibody labeled with AlexaFluor-700. The Ruthenium complex serves as the FRET donor and transfers energy to AlexaFluor-700. The FRET signal is inversely proportional to the cAMP concentration.
CHO-GPR17S cells were detached with Accutase and resuspended in assay buffer consisting of Hank's Balanced Salt Solution (HBSS), 10mM HEPES (4-(2-hydroxyethyl) piperazine-1-ethanesulfonic acid solution) and 0.1% bovine serum albumin (pH 7.4). The cells were seeded in black 384-well plates (Corning) at a density of 10'000 cells / 20µl assay buffer until the addition of compounds.
Test antagonist compounds were serially diluted in dimethyl sulfoxide (DMSO) and spotted in 384-well plates. The compounds were then diluted in HBSS buffer supplemented with an EC80 concentration of MDL29,951 (3-(2-Carboxy-4,6-dichloroindol-3-yl)propionic acid) (GPR17 agonist) plus 3-Isobutyl-1-methylxanthine (IBMX) (0.5mM final concentration) and added to the cells at room temperature. Forskolin (15µM final concentration) was added 5 minutes after the test compounds and the cells were incubated at room temperature for 30 minutes. The assay was stopped by adding cAMP detection mix (containing detergents for cell lysis) for 90 minutes at room temperature.
Cellular cAMP was measured using a Paradigm reader (Molecular Devices). The raw data was used to calculate the FRET signal based on the assay's P-factor as per cAMP kit instructions. The data was normalized to the maximal activity of a reference antagonist and dose response curves were fitted to the percent activity of the test compounds using a sigmoidal dose response model (Genedata Screener).
Results in the hGPR17 cAMP assay are provided for compounds of formula I in Table 1 Table 1: […]

Row | IC50 | Structure (SMILES)
1 | 21 nM | COc1nc(NS(=O)(=O)c2c[nH]c3c(-n4cccn4)c(Cl)ccc23)nc(OC)c1OC(F)F [Example 66, 6-chloro-N-[5-(difluoromethoxy)-4,6-dimethoxy-pyrimidin-2-yl]-7-pyrazol-1-yl-1H-indole-3-sulfonamide]
2 | 75 nM | COc1nc(NS(=O)(=O)c2c[nH]c3c(-n4nccn4)c(Cl)c(F)cc23)nc(OC)c1OCC(F)F [Example 64, 6-chloro-N-[5-(2,2-difluoroethoxy)-4,6-dimethoxy-pyrimidin-2-yl]-5-fluoro-7-(triazol-2-yl)-1H-indole-3-sulfonamide]
3 | 22 nM | COc1nc(NS(=O)(=O)c2c[nH]c3c(-n4cccn4)c(Cl)ccc23)nc(OC)c1OCC(F)F [Example 65, 6-chloro-N-[5-(2,2-difluoroethoxy)-4,6-dimethoxy-pyrimidin-2-yl]-7-pyrazol-1-yl-1H-indole-3-sulfonamide]
4 | 19 nM | COc1nc(NS(=O)(=O)c2c[nH]c3c(-n4nccn4)c(Cl)ccc23)nc(OC)c1C [Example 62, 6-chloro-N-(4,6-dimethoxy-5-methyl-pyrimidin-2-yl)-7-(triazol-2-yl)-1H-indole-3-sulfonamide]
5 | 52 nM | COc1nc(NS(=O)(=O)c2c[nH]c3c(-n4cccn4)c(Cl)ccc23)nc(OC)c1OCC#N [Example 69, 6-chloro-N-[5-(cyanomethoxy)-4,6-dimethoxy-pyrimidin-2-yl]-7-pyrazol-1-yl-1H-indole-3-sulfonamide]
6 | 41 nM | [2H]C([2H])(c1cnc(NS(=O)(=O)c2c[nH]c3c(-n4cccn4)c(Cl)ccc23)nc1OC)C(F)F [Example 72, 6-chloro-N-[5-(1,1-dideuterio-2,2-difluoroethyl)-4-methoxy-pyrimidin-2-yl]-7-pyrazol-1-yl-1H-indole-3-sulfonamide]
7 | 37 nM | COc1nc(NS(=O)(=O)c2c[nH]c3c(-n4nccn4)c(Cl)ccc23)nc(OC)c1Br [Example 63, N-(5-bromo-4,6-dimethoxy-pyrimidin-2-yl)-6-chloro-7-(triazol-2-yl)-1H-indole-3-sulfonamide]
8 | 74 nM | [2H]C([2H])(Oc1c(OC)nc(NS(=O)(=O)c2c[nH]c3c(-n4nccn4)c(Cl)ccc23)nc1OC)C(F)F [Example 59, 6-chloro-N-[5-(1,1-dideuterio-2,2-difluoro-ethoxy)-4,6-dimethoxy-pyrimidin-2-yl]-7-(triazol-2-yl)-1H-indole-3-sulfonamide]
9 | 29 nM | COc1nc(NS(=O)(=O)c2c[nH]c3c(-n4cccn4)c(C)ccc23)nc(OC)c1CC(F)F [Example 80, N-[5-(2,2-difluoroethyl)-4,6-dimethoxy-pyrimidin-2-yl]-6-methyl-7-pyrazol-1-yl-1H-indole-3-sulfonamide]
10 | 94 nM | COc1nc(NS(=O)(=O)c2c[nH]c3c(-n4cccn4)c(C(F)F)ccc23)nc(OC)c1OCCF [Example 51, 6-(difluoromethyl)-N-[5-(2-fluoroethoxy)-4,6-dimethoxy-pyrimidin-2-yl]-7-pyrazol-1-yl-1H-indole-3-sulfonamide]
11 | 75 nM | COc1nc(NS(=O)(=O)c2c[nH]c3c(-n4cccn4)c(C)ccc23)nc(OC)c1OC(F)F [Example 76, N-[5-(difluoromethoxy)-4,6-dimethoxy-pyrimidin-2-yl]-6-methyl-7-pyrazol-1-yl-1H-indole-3-sulfonamide]

Continued, compound first:

Row | Structure (SMILES) | IC50
12 | COc1nc(NS(=O)(=O)c2c[nH]c3c(-n4nccn4)c(Cl)ccc23)nc(OC)c1CC(F)F [Example 7, 6-chloro-N-[5-(2,2-difluoroethyl)-4,6-dimethoxy-pyrimidin-2-yl]-7-(triazol-2-yl)-1H-indole-3-sulfonamide] | 21 nM
13 | COc1nc(NS(=O)(=O)c2c[nH]c3c(-n4ncc(C)n4)c(Cl)ccc23)nc(OC)c1OCCF [Example 39, 6-chloro-N-[5-(2-fluoroethoxy)-4,6-dimethoxy-pyrimidin-2-yl]-7-(4-methyltriazol-2-yl)-1H-indole-3-sulfonamide] | 55 nM
14 | COc1nc(NS(=O)(=O)c2c[nH]c3c(-n4cccn4)c(C(F)F)ccc23)nc(OC)c1OCC(F)F [Example 50, N-[5-(2,2-difluoroethoxy)-4,6-dimethoxy-pyrimidin-2-yl]-6-(difluoromethyl)-7-pyrazol-1-yl-1H-indole-3-sulfonamide] | 65 nM
15 | COc1nc(NS(=O)(=O)c2c[nH]c3c(-n4nccn4)c(C(F)F)ccc23)nc(OC)c1OCC(F)F [Example 11, N-[5-(2,2-difluoroethoxy)-4,6-dimethoxy-pyrimidin-2-yl]-6-(difluoromethyl)-7-(triazol-2-yl)-1H-indole-3-sulfonamide] | 74 nM
16 | COc1nc(NS(=O)(=O)c2c[nH]c3c(-n4nccn4)c(C(F)F)ccc23)nc(OC)c1CC(F)F [Example 42, N-[5-(2,2-difluoroethyl)-4,6-dimethoxy-pyrimidin-2-yl]-6-(difluoromethyl)-7-(triazol-2-yl)-1H-indole-3-sulfonamide] | 50 nM
17 | COc1nc(NS(=O)(=O)c2c[nH]c3c(-n4nccn4)c(Br)ccc23)nc(OC)c1OC(F)F [Example 29, 6-bromo-N-[5-(difluoromethoxy)-4,6-dimethoxy-pyrimidin-2-yl]-7-(triazol-2-yl)-1H-indole-3-sulfonamide] | 22 nM
18 | COc1nc(NS(=O)(=O)c2c[nH]c3c(-n4cnnc4)c(Cl)ccc23)nc(OC)c1CC(F)F [Example 10, 6-chloro-N-[5-(2,2-difluoroethyl)-4,6-dimethoxy-pyrimidin-2-yl]-7-(1,2,4-triazol-4-yl)-1H-indole-3-sulfonamide] | 100 nM
19 | COc1nc(NS(=O)(=O)c2c[nH]c3c(-n4nccn4)cccc23)nc(OC)c1OCC(F)F [Example 20, N-[5-(2,2-difluoroethoxy)-4,6-dimethoxy-pyrimidin-2-yl]-7-(triazol-2-yl)-1H-indole-3-sulfonamide] | 447 nM
20 | COc1nc(NS(=O)(=O)c2c[nH]c3c(-n4nccn4)c(Cl)ccc23)nc(OC)c1OCCF [Example 14, 6-chloro-N-[5-(2-fluoroethoxy)-4,6-dimethoxy-pyrimidin-2-yl]-7-(triazol-2-yl)-1H-indole-3-sulfonamide] | 28 nM
21 | COc1nc(NS(=O)(=O)c2c[nH]c3c(-n4cc(C)cn4)c(Cl)ccc23)nc(OC)c1OCC(F)F [Example 43, 6-chloro-N-[5-(2,2-difluoroethoxy)-4,6-dimethoxy-pyrimidin-2-yl]-7-(4-methylpyrazol-1-yl)-1H-indole-3-sulfonamide] | 29 nM
22 | COc1nc(NS(=O)(=O)c2c[nH]c3c(-n4nccn4)c(C)ccc23)nc(OC)c1OCC(F)F [Example 25, N-[5-(2,2-difluoroethoxy)-4,6-dimethoxy-pyrimidin-2-yl]-6-methyl-7-(triazol-2-yl)-1H-indole-3-sulfonamide] | 34 nM
23 | COc1nc(NS(=O)(=O)c2c[nH]c3c(-n4ccc(C)n4)c(Cl)ccc23)nc(OC)c1OCC(F)F [Example 44, 6-chloro-N-[5-(2,2-difluoroethoxy)-4,6-dimethoxy-pyrimidin-2-yl]-7-(3-methylpyrazol-1-yl)-1H-indole-3-sulfonamide] | 23 nM
24 | COc1nc(NS(=O)(=O)c2c[nH]c3c(-n4nccn4)c(C(F)F)ccc23)nc(OC)c1OCCF [Example 41, 6-(difluoromethyl)-N-[5-(2-fluoroethoxy)-4,6-dimethoxy-pyrimidin-2-yl]-7-(triazol-2-yl)-1H-indole-3-sulfonamide] | 64 nM
25 | COc1nc(NS(=O)(=O)c2c[nH]c3c(-n4cc(F)cn4)c(Cl)ccc23)nc(OC)c1OCC(F)F [Example 45, 6-chloro-N-[5-(2,2-difluoroethoxy)-4,6-dimethoxy-pyrimidin-2-yl]-7-(4-fluoropyrazol-1-yl)-1H-indole-3-sulfonamide] | 25 nM
26 | COc1nc(NS(=O)(=O)c2c[nH]c3c(-n4nccn4)c(Br)ccc23)nc(OC)c1OCC(F)F [Example 30, 6-bromo-N-[5-(2,2-difluoroethoxy)-4,6-dimethoxy-pyrimidin-2-yl]-7-(triazol-2-yl)-1H-indole-3-sulfonamide] | 23 nM
27 | COc1nc(NS(=O)(=O)c2c[nH]c3c(-n4nccn4)c(Cl)ccc23)nc(OC)c1OC(F)F [Example 15, 6-chloro-N-[5-(difluoromethoxy)-4,6-dimethoxy-pyrimidin-2-yl]-7-(triazol-2-yl)-1H-indole-3-sulfonamide] | 25 nM
28 | COc1nc(NS(=O)(=O)c2c[nH]c3c(-n4nccn4)c(F)ccc23)nc(OC)c1C1CC1C#N (stereo not shown) [Example 36, N-[5-(2-cyanocyclopropyl)-4,6-dimethoxy-pyrimidin-2-yl]-6-fluoro-7-(triazol-2-yl)-1H-indole-3-sulfonamide] | 82 nM
